{"source": "patent US20230355646A1", "about": "“AUTOPHAGY ACTIVATOR” (Resonac Corporation, priority 2020, published 2023)", "assay_type_in_all_cases": "cell-based", "key": {"LC3 gene": {"tested_on": "LC3 gene", "test": "LC3 gene expression promoting effect in human senescent fibroblasts (quantitative real-time PCR)", "procedure": "(§1) Normal human fibroblasts (NB1RGB, RIKEN BRC Cell Bank) were cultured until confluent in D-MEM medium (manufactured by Sigma-Aldrich) to which 10% fetal bovine serum (manufactured by MP Biomedicals) was added. Thereafter, the cells were treated with 250 μM aqueous hydrogen peroxide for 2 hours, and cultured for 24 hours in D-MEM medium to which fresh 10% fetal bovine serum was added. The treatment with aqueous hydrogen peroxide and the cell culture operation were repeated three times, and the obtained fibroblasts were used as senescent fibroblasts.\n(§2) The prepared senescent fibroblasts were prepared at a seeding density of 10000 cells/cm^2 and cultured for 24 hours in D-MEM medium (manufactured by Sigma-Aldrich) to which 10% fetal bovine serum (manufactured by MP Biomedicals) was added. […]\n(§3) Then, using Nucleospin (registered trademark) RNA kit (manufactured by Takara Bio Inc.), RNA was extracted from senescent fibroblasts or normal human fibroblasts in each example, and cDNA was synthesized from the obtained RNA. Next, using this cDNA as a template, by quantitative real-time PCR, the expression level of each gene was quantified using primers (manufactured by Takara Bio Inc.) specific to the LC3 gene, ATG5 gene, and ATG7 gene, respectively. […]"}, "ATG7 gene": {"tested_on": "ATG7 gene", "test": "ATG7 gene expression promoting effect in human senescent fibroblasts (quantitative real-time PCR)", "procedure": "as §1, §2, §3"}, "mTOR gene": {"tested_on": "mTOR gene", "test": "mTOR gene expression suppression effect in human senescent fibroblasts (quantitative real-time PCR)", "procedure": "as §1, §2\nas §3, with “of mTOR” for “of each”, “to mTOR gene.” for “to the LC3 gene, ATG5 gene, and ATG7 gene, respectively.”"}, "[1]": {"settings": "10^−2% (V/V) methyl hesperidin or hesperidin, additional ingredient where in the example, 24 hours, Comparative Example 1 (DMSO) = 1.00"}, "[2]": {"settings": "compared to DMSO only of Comparative Example 1"}}, "data": [{"smiles": "COc1ccc([C@@H]2CC(=O)c3c(O)cc(O[C@@H]4O[C@H](CO[C@@H]5O[C@@H](C)[C@H](O)[C@@H](O)[C@H]5O)[C@@H](O)[C@H](O)[C@H]4O)cc3O2)cc1O", "note": "[Comparative Example 2, hesperidin]", "values": [{"measurement": "Relative gene expression level LC3", "setting": "LC3 gene; [1]", "result": "<0"}, {"measurement": "expression level of the LC3 gene (in words)", "setting": "LC3 gene; [2]", "result": "more decreased"}, {"measurement": "Relative gene expression level ATG7", "setting": "ATG7 gene; [1]", "result": 0.76}, {"measurement": "expression level of the ATG7 gene (in words)", "setting": "ATG7 gene; [2]", "result": "more decreased"}, {"measurement": "Relative gene expression level mTOR", "setting": "mTOR gene; 10^−2% (V/V) methyl hesperidin or hesperidin, additional ingredient where in the example, 24 hours, Comparative Example 3 (DMSO) = 1.00", "result": 1.16}, {"measurement": "expression level of mTOR gene (in words)", "setting": "mTOR gene; compared to DMSO only of Comparative Example 3", "result": "almost the same"}]}]}
